pIC50: −log10 of the molar value.
Columns and labels:
[1] = target: T1, biotinylated truncated STAT6 (123-632)-avi (Homo sapiens, UniProt P42226); experiment: biochemical
T1 sequence (P42226 123-632 limits assumed): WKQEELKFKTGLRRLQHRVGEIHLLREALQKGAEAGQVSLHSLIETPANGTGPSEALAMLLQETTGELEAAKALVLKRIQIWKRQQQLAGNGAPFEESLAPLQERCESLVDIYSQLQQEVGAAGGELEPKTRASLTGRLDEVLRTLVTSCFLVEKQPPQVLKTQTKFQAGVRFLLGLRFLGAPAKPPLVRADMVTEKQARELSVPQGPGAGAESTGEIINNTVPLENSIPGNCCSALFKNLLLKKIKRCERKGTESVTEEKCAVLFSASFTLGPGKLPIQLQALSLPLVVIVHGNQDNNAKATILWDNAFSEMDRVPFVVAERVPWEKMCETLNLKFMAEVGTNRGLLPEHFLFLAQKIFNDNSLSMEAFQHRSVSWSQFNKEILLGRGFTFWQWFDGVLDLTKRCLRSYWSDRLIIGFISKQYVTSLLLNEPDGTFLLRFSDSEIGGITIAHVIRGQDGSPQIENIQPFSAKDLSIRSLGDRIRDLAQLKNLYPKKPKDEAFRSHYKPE

STAT6 [2] = target: T2, STAT6 (Homo sapiens, UniProt P42226); experiment: Phosphorylated STAT6 (pSTAT6) flow cytometry assay in human PBMC, IL-4 stimulated; assay type: cell-based; set-up: endogenous in cells; host or cells: human PBMC (CD19+ B cells), IL-4 stimulated; conditions: 1 hour compound, 1 ng/ml IL-4 15 minutes, pSTAT6 in CD19+ B cells, read-out: STAT6 IL4 pSTAT6 assay in PBMC: Average IC50
T2 sequence (P42226 1-847): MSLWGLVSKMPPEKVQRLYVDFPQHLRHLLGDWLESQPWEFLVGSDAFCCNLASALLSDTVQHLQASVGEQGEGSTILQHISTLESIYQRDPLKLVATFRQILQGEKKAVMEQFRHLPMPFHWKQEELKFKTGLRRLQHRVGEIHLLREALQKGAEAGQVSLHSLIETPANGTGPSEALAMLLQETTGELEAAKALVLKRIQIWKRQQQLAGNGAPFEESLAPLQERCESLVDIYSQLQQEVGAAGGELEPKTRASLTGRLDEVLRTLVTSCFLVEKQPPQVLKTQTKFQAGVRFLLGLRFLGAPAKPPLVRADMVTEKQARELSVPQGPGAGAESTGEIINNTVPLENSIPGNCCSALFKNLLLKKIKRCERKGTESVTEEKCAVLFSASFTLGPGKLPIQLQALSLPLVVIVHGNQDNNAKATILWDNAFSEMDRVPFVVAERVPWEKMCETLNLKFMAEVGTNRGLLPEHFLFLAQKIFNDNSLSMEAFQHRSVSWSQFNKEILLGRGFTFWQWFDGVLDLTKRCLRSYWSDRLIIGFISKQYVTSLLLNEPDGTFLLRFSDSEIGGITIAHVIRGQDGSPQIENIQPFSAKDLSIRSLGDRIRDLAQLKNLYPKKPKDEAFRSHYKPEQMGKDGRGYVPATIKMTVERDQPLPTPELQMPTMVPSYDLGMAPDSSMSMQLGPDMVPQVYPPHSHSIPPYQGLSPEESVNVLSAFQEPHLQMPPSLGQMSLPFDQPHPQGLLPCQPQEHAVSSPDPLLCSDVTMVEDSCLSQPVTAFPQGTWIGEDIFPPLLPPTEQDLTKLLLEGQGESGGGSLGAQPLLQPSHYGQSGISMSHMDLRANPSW
Description: Example 2. Phosphorylated STAT6 (pSTAT6) Flow Cytometry Assay in Human PBMC
Phosphorylation of STAT6 in human PBMC was quantitatively measured using flow cytometry technology. Human PBMC were seeded in 96-well plates with a density of 0.3 to 0.5 million cells per well in 100 μl fresh media. Compounds were then added to the assay plates with a final top concentration of up to […] in a 1:3 dilution series with total of 9 doses. The assay plates were incubated for 1 hour at 37° C. under 5% CO2. The cells were then stimulated with 1 ng/ml of IL-4 (R&D Systems, Cat #6507-IL) for 15 minutes, followed by fixation for 30 minutes at 4° C. Cells were spun down at 350 g for 5 minutes. The supernatant was removed and cells were washed once with FACS buffer. Cells were permeabilized with 90% MeOH/H2O for 30 minutes at 4° C., followed by one wash with FACS buffer. Non-specific binding were blocked with human Fc for 1 hour at 4° C., followed by one wash with FACS buffer. AF488 conjugated pSTAT6 antibody (BD Biosciences, Cat #612600, 1:100 dilution) and PE conjugated CD19 antibody (BD Biosciences, Cat #341103, 1:50 dilution) diluted in 100 μl FACS buffer was added to each well with overnight incubation at 4° C. Cells were then washed once with FACS buffer and resuspended in 200 μl of FACS buffer for flow cytometry to quantify pSTAT6 in CD19+ B cells. The data was analyzed by GraphPad Prism and the dose dependent pSTAT6 inhibition was fit using the four-parameter inhibitor vs. response nonlinear regression.

STAT6 [3] = target: T2, STAT6; experiment: Phosphorylated STAT6 (pSTAT6) flow cytometry assay in human A549 cells; assay type: cell-based; set-up: endogenous in cells; conditions: read-out: STAT6 IL4 pSTAT6 assay in A549 cells: Average IC50
Description: Example 3. Phosphorylated STAT6 (pSTAT6) Flow Cytometry Assay in Human A549 Cells
Phosphorylation of STAT6 in human A549 cells was quantitatively measured using flow cytometry technology.

With `Cn1cccc(-c2ccc([C@H]3CCCN(C(=O)CCn4ccnn4)C3)cc2F)c1=O` (single isomer, unassigned) [Compound I-7] the pIC50 [1] was 4.00 to 5.00 and the pIC50 (STAT6 [2]) was < 4.00.
For `Cn1cccc(-c2ccc([C@@H]3CCCN(C(=O)CCn4ccnn4)C3)cc2F)c1=O` (single isomer, unassigned) [Compound I-320], the pIC50 [1] was 4.00 to 5.00 and the pIC50 (STAT6 [2]) was < 4.00.
`O=C(CCn1ccnn1)N1CCC[C@@H](c2ccc(-n3ccccc3=O)c(F)c2)C1` (single isomer, unassigned) [Compound I-1293] gave a pIC50 [1] of 4.00 to 5.00.
For `O=C(CCn1ccnn1)N1CCC[C@H](c2ccc(-n3ccccc3=O)c(F)c2)C1` (single isomer, unassigned) [Compound I-1294], the pIC50 [1] was 4.00 to 5.00.
Work on `CN1CCN(c2ccc(C3=CCCN(C(=O)CCn4ccnn4)C3)cc2Cl)CC1=O` [Compound I-6] yielded a pIC50 [1] of 4.00 to 5.00 and a pIC50 (STAT6 [2]) of 4.00 to 5.00.
In the case of `CN(CC1CCN(c2ccc(-n3ccccc3=O)cc2F)CC1)C(Cc1cccnn1)c1ccc(CO)cc1` (stereo not drawn) [Compound I-121], the pIC50 [1] was < 4.00 and the pIC50 (STAT6 [2]) was < 4.00.
`Cc1cscc1-c1cc(CO)ccc1C(=O)N(C)CC1CCN(c2ccc(-n3ccccc3=O)cc2F)CC1` [Compound I-131] was tested, and the pIC50 [1] was 4.00 to 5.00 and the pIC50 (STAT6 [2]) was < 4.00.
For `CN(CC1CCN(c2ccc(-n3ccccc3=O)cc2F)CC1)C(=O)c1ccc(CO)cc1-c1ccsc1` [Compound I-164], the pIC50 [1] was 5.00 to 6.00 and the pIC50 (STAT6 [2]) was < 4.00.
With `CN(CC1CCN(c2ccc(-n3ccccc3=O)cc2)CC1)C(=O)c1ccc(CO)cc1` [Compound I-183] the pIC50 [1] was 4.00 to 5.00 and the pIC50 (STAT6 [2]) was < 4.00.
For `CN(C)C(=O)c1ccc(C2=CCCN(C(=O)CCn3ccnn3)C2)cc1C(N)=O` [Compound I-211], the pIC50 [1] was 4.00 to 5.00 and the pIC50 (STAT6 [2]) was < 4.00.
With `CN(C)C(=O)c1ccc(C2=CCCN(C(=O)CCn3ccnn3)C2)cc1O` [Compound I-218] the pIC50 [1] was 4.00 to 5.00 and the pIC50 (STAT6 [2]) was < 4.00.
`CN(C)C(=O)c1ccc(C2=CCCN(C(=O)CC3CNc4ccccc4O3)C2)c(C#N)c1` (stereo not drawn) [Compound I-223] was tested, and the pIC50 [1] was 4.00 to 5.00 and the pIC50 (STAT6 [2]) was < 4.00.
`CN(C)C(=O)c1ccc(C2=CCCN(C(=O)CCn3ccnn3)C2)cc1C#N` [Compound I-230] was tested, and the pIC50 [1] was < 4.00 and the pIC50 (STAT6 [2]) was < 4.00.
For `CN(C)C(=O)c1ccc(N2CCC(CN(C)C(=O)c3ccc(CO)cc3)CC2)c(F)c1` [Compound I-238], the pIC50 [1] was 4.00 to 5.00 and the pIC50 (STAT6 [2]) was < 4.00.
`CN(C)C(=O)c1ccc2ccc(C3=CCCN(C(=O)CCn4ccnn4)C3)cc2c1` [Compound I-242] was tested, and the pIC50 [1] was 4.00 to 5.00 and the pIC50 (STAT6 [2]) was < 4.00.
`COC(=O)COc1cc(C2=CCCN(C(=O)CCn3ccnn3)C2)ccc1C(=O)N(C)C` [Compound I-250] was tested, and the pIC50 [1] was 4.00 to 5.00 and the pIC50 (STAT6 [2]) was < 4.00.
With `CN(C)C(=O)c1ccc(C2=CCCN(C(=O)CCn3ccnn3)C2)c(O)c1` [Compound I-253] the pIC50 [1] was 5.00 to 6.00 and the pIC50 (STAT6 [2]) was < 4.00.
In the case of `CN(C)C(=O)c1cc2cc(NC(=O)CCCn3ccnn3)ccc2o1` [Compound I-258], the pIC50 [1] was 4.00 to 5.00 and the pIC50 (STAT6 [2]) was < 4.00.
With `COc1cc(C(=O)N(C)C)ccc1C1=CCCN(C(=O)CCn2ccnn2)C1` [Compound I-260] the pIC50 [1] was 5.00 to 6.00 and the pIC50 (STAT6 [2]) was < 4.00.
In the case of `CN(C)C(=O)c1cc2cc(NC(=O)CCn3ccnn3)ccc2o1` [Compound I-262], the pIC50 [1] was 4.00 to 5.00 and the pIC50 (STAT6 [2]) was < 4.00.
`CN(C)C(=O)c1ccc(C2=CCCN(C(=O)CCn3ccnn3)C2)cc1` [Compound I-288] was tested, and the pIC50 [1] was 5.00 to 6.00 and the pIC50 (STAT6 [2]) was < 4.00.
For `CN(C)C(=O)c1cc2cc(C3CCN(C(=O)CCn4ccnn4)C3)ccc2o1` (stereo not drawn) [Compound I-303], the pIC50 [1] was 4.00 to 5.00 and the pIC50 (STAT6 [2]) was < 4.00.
For `COc1ccccc1-c1cc(Cc2ccccn2)c(F)c(C2=CCCN(C(=O)CCn3ccnn3)C2)c1` [Compound I-1102], the pIC50 [1] was 6.00 to 7.00 and the pIC50 (STAT6 [3]) was 6.00 to 7.00.
`CCc1ccc(-c2cc(C(=O)N3Cc4cnn(CC)c4C3)cc3cc(-c4cccc(C(=O)O)c4C)n(CC4CC4)c23)c(C)n1` [Compound I-1240] was tested, and the pIC50 [1] was 5.00 to 6.00.
`CCc1ccc(-c2cc(C(=O)N3Cc4cnn(CC)c4C3)cc3cc(-c4cc(C(=O)O)ccc4C)n(CC4CC4)c23)c(C)n1` [Compound I-1246] was tested, and the pIC50 [1] was 5.00 to 6.00.
Molecule `CNC(=O)c1ccc2c(c1)nc(-c1nc3ccc(F)cc3[nH]1)n2Cc1ccc(CN2CCOCC2)o1` [Compound I-1271] has a pIC50 [1] of 4.00 to 5.00.
For `CNC(=O)c1ccc2c(c1)nc(-c1cccn1C)n2-c1ccccc1OC(F)F` [Compound I-1272], the pIC50 [1] was 4.00 to 5.00.
With `CN(CC1CCN(c2ccc(-n3ccccc3=O)cc2F)CC1)C(=O)c1ccc(OC(F)F)cc1` [Compound I-1273] the pIC50 [1] was 4.00 to 5.00.
For `CN(C)C(=O)c1cnc(-c2ccc(NC(=O)CCn3ccnn3)cc2)[nH]1` [Compound I-1295], the pIC50 [1] was 4.00 to 5.00.
In the case of `COc1ccccc1-c1cc(-n2ccccc2=O)cc(F)c1N1CCC(CN(C)C(=O)c2ccc(CO)cc2)CC1` [Compound I-1296], the pIC50 [1] was 4.00 to 5.00.
`CN(C)C(=O)c1cc2c([nH]1)CN(C1CCCN(C(=O)CCn3ccnn3)C1)CC2` (stereo not drawn) [Compound I-1297] gave a pIC50 [1] of 4.00 to 5.00.
Molecule `CN(C)C(=O)c1ccc(C2=CCCN(C(=O)CC3Oc4ccccc4NC3=O)C2)c(OC(F)(F)F)c1` (stereo not drawn) [Compound I-1298] has a pIC50 [1] of 4.00 to 5.00.
`CN(C)C(=O)c1cc2ccc(-c3cnc(CC(=O)Nc4cccc(C(N)=O)c4)s3)c(F)c2[nH]1` [Compound I-1323] was tested, and the pIC50 [1] was 6.00 to 7.00.
With `CN(C)C(=O)c1cc2ccc(C3CCCCN(C(=O)Nc4cccc(C(N)=O)c4)C3)c(F)c2[nH]1` (stereo not drawn) [Compound I-1325] the pIC50 [1] was 4.00 to 5.00.
With `COc1ccccc1-c1cc(-c2cccc(C(=O)N(C)C)c2)c(F)c2[nH]c(C(=O)N(C)C)cc12` [Compound I-1583] the pIC50 [1] was 5.00 to 6.00.
With `O=C(CCn1ccnn1)N1CCC=C(c2ccc(-n3ccccc3=O)cc2)C1` [Compound I-1625] the pIC50 [1] was 5.00 to 6.00.

— US20250213586A1, “STAT6 INHIBITORS AND USES THEREOF” (Kymera Therapeutics, Inc., priority 2024, published 2025)
